In US20240182945A1, “PRODUCTS FOR REGULATION OF EUKARYOTIC AND MICROBIAL CELLS GROWTH” (priority 2021, published 2024):

Tests used:
[1] = tested on: MIX—PP +BM (P. aeruginosa with microbial modulators); assay: Growth of mix PP + MM (original sputum) on antibiotic-supplemented Columbia agar; format: cell-based; conditions: Bacterial set #2; Cefepime (16 μg/mL); Columbia agar with erythrocytes 5%, 24 h at 37 C
[2] = tested on: bacteria of sputum from patients with lung diseases; assay: Standard antibiotic susceptibility study using the microbroth dilution method (Algorithm #3); format: cell-based; further: key: '+'—presence of bacterial growth, antibiotic ineffective; '−'—absence of bacterial growth, antibiotic effective
Source text: Algorithm #3—Standard antibiotic susceptibility study using the microbroth dilution method.

A. ursingii = assay: Growth of microbial modulator alone on antibiotic-supplemented Columbia agar; format: cell-based; conditions: Bacterial set #2; Cefepime (16 μg/mL); Columbia agar with erythrocytes 5%, 24 h at 37 C
R. dentocariosa = assay: as above; format: cell-based; conditions: Bacterial set #2; Cefepime (16 μg/mL); Columbia agar with erythrocytes 5%, 24 h at 37 C
[3] = tested on: bacteria of the biosample (persisters); assay: Neutropenic mice instilled with biosample and treated with antibiotic for 72 h, microbial growth in organs and blood; format: in vivo; conditions: neutropenic C57BL/6 mice treated for 72 h, agar with 100 ug/mL of the antibiotic
Method: Next, we confirmed that antibiotics selected with proposed algorithm are effective. Adult C57BL/6 mice were rendered neutropenic by injecting cyclophosphamide subcutaneously 4 days before infection (150 mg/kg of body weight), 1 day before infection (100 mg/kg), and 1 day after infection (100 mg/kg). Mice were anesthetized with 2% isoflurane and orally instilled with biosample (stored at +4 C). Briefly, nares were blocked, and mice aspirated 50 μL of the biosample into the lungs while being held vertically for 60 s.

[4] = cited from earlier work
[5] = tested on: S.aureus (PP) and MM in sputum from children with pneumonia; assay: Degree of eradication of PP and MM on Columbia agar with antibiotic at concentrations achievable at the site of infection; format: cell-based; set-up: key to Degree of primary pathogen eradication, evaluation of ABEPP: % of primary pathogen (PP) eliminated
Method: We next tried to select antibiotics based on building a probability model. Antibiotic efficacy was evaluated based on a novel parameters: • ABEPPMM100—antibiotic concentration that is required for the elimination of 100% “complex” PP+MM. • ABEPPMM99—antibiotic concentration that is required for the elimination of 99% “complex” PP+MM.
ABEPPMM90—antibiotic concentration that is required for the elimination of 90% “complex” PP+MM.
ABEPPMM50—antibiotic concentration that is required for the elimination of 50% “complex” PP+MM.
ABEPP100—antibiotic concentration that affecting on “complex” PP+MM is required for the elimination of 100% PP.
ABEPP99—antibiotic concentration that affecting on “complex” PP+MM is required for the elimination of 99% PP.
ABEPP90—antibiotic concentration that affecting on “complex” PP+MM is required for the elimination of 90% PP.
ABEPP50—antibiotic concentration that affecting on “complex” PP+MM is required for the elimination of 50% PP.
We used sputum from children with pneumonia, with S.aureus as confirmed PP. Patient 1—child • Patient 2—child • Patient 3—child

P. aeruginosa = assay: Growth of primary pathogen alone on antibiotic-supplemented Columbia agar; format: cell-based; conditions: Bacterial set #2; Cefepime (16 μg/mL); Columbia agar with erythrocytes 5%, 24 h at 37 C
Method: Four sputum samples from patients with lung infections were used. Pure bacterial culture of each microorganisms was obtained by routine microbiological methods.
In this case this antibiotic at MIC of 16 ug/mL was used in the following studies. PP alone, or Microbial Modulators (MM) alone or the original sputum were plated on the wells of 24 well plate filled with nutrient Columbia agar supplemented with erythrocytes 5% and supplemented with antibiotics taken as MIC determined against PP, but not more than 16 μg/mL and incubated 24 h at 37 C.

B. pumilus = assay: Growth of microbial modulator alone on antibiotic-supplemented Columbia agar; format: cell-based; conditions: Bacterial set #2; Cefepime (16 μg/mL); Columbia agar with erythrocytes 5%, 24 h at 37 C
[6] = Patient 1, C0-1 h, 24 h of growth
[7] = Patient 1, C0-2 h, 24 h of growth
[8] = Patient 1, C0-3 h, 24 h of growth
[9] = Patient 1, C0-4 h, 24 h of growth
[10] = Patient 1, C0-6 h, 24 h of growth
[11] = Patient 1, C0-8 h, 24 h of growth
[12] = Patient 1, C0-12 h, 24 h of growth
[13] = Patient 1, C0-24 h, 24 h of growth
[14] = Patient 1, C2-3 h, 24 h of growth
[15] = Patient 1, C3-4 h, 24 h of growth
[16] = Patient 1, C4-6 h, 24 h of growth
[17] = Patient 1, C6-8 h, 24 h of growth
[18] = Patient 1, C8-12 h, 24 h of growth
[19] = Patient 1, C12-24 h, 24 h of growth
[20] = Patient 1, Cmax × 2, 24 h of growth
[21] = Patient 2, C0-3 h, 24 h of growth
[22] = Patient 2, C0-4 h, 24 h of growth
[23] = Patient 2, C0-6 h, 24 h of growth
[24] = Patient 2, C0-8 h, 24 h of growth
[25] = Patient 2, C0-12 h, 24 h of growth
[26] = Patient 2, C0-24 h, 24 h of growth
[27] = Patient 2, C3-4 h, 24 h of growth
[28] = Patient 2, C4-6 h, 24 h of growth
[29] = Patient 2, C6-8 h, 24 h of growth
[30] = Patient 2, C8-12 h, 24 h of growth
[31] = Patient 2, C12-24 h, 24 h of growth
[32] = Patient 3, C0-3 h, 24 h of growth
[33] = Patient 3, C0-4 h, 24 h of growth
[34] = Patient 3, C0-6 h, 24 h of growth
[35] = Patient 3, C0-8 h, 24 h of growth
[36] = Patient 3, C0-12 h, 24 h of growth
[37] = Patient 3, C0-24 h, 24 h of growth
[38] = Patient 3, C3-4 h, 24 h of growth
[39] = Patient 3, C4-6 h, 24 h of growth
[40] = Patient 3, C6-8 h, 24 h of growth
[41] = Patient 3, C8-12 h, 24 h of growth
[42] = Patient 3, C12-24 h, 24 h of growth

CO/N=C(\C(=O)N[C@@H]1C(=O)N2C(C(=O)[O-])=C(C[N+]3(C)CCCC3)CS[C@H]12)c1csc(N)n1 [Cefepime]
microbial growth, MIX (PP + MM) [1]: −
ATB efficacy [2]: +
microbial growth, AU (BM alone) (A. ursingii): +
microbial growth, RD (BM alone) (R. dentocariosa): −
Number of animals with positive microbial growth on the agar with antibiotics/total number of animals per group ([3]; Blood): 4/8
Number of animals with positive microbial growth on the agar with antibiotics/total number of animals per group ([3]; Liver): 2/8
Number of animals with positive microbial growth on the agar with antibiotics/total number of animals per group ([3]; Lungs): 3/8
lung concentration after 8 h of administration ([4]; 8 h): 23 µg/mL
lung concentration after 12 h of administration ([4]; 12 h): 8 µg/mL
Degree of primary pathogen eradication, evaluation of ABEPP [5, 6]: 100
Degree of primary pathogen eradication, evaluation of ABEPPMM [5, 6]: 100
Degree of primary pathogen eradication, evaluation of ABEPP [5, 7]: 100
Degree of primary pathogen eradication, evaluation of ABEPPMM [5, 7]: 100
Degree of primary pathogen eradication, evaluation of ABEPP [5, 8]: 100
Degree of primary pathogen eradication, evaluation of ABEPPMM [5, 8]: 100
Degree of primary pathogen eradication, evaluation of ABEPP [5, 9]: 100
Degree of primary pathogen eradication, evaluation of ABEPPMM [5, 9]: 100
Degree of primary pathogen eradication, evaluation of ABEPP [5, 10]: 100
Degree of primary pathogen eradication, evaluation of ABEPPMM [5, 10]: 100
Degree of primary pathogen eradication, evaluation of ABEPP [5, 11]: 50
Degree of primary pathogen eradication, evaluation of ABEPPMM [5, 11]: 50
Degree of primary pathogen eradication, evaluation of ABEPP [5, 12]: 00
Degree of primary pathogen eradication, evaluation of ABEPPMM [5, 12]: 00
Degree of primary pathogen eradication, evaluation of ABEPP [5, 13]: 0
Degree of primary pathogen eradication, evaluation of ABEPPMM [5, 13]: 0
Degree of primary pathogen eradication, evaluation of ABEPP [5, 14]: 100
Degree of primary pathogen eradication, evaluation of ABEPPMM [5, 14]: 100
Degree of primary pathogen eradication, evaluation of ABEPP [5, 15]: 100
Degree of primary pathogen eradication, evaluation of ABEPPMM [5, 15]: 100
Degree of primary pathogen eradication, evaluation of ABEPP [5, 16]: 100
Degree of primary pathogen eradication, evaluation of ABEPPMM [5, 16]: 100
Degree of primary pathogen eradication, evaluation of ABEPP [5, 17]: 100
Degree of primary pathogen eradication, evaluation of ABEPPMM [5, 17]: 100
Degree of primary pathogen eradication, evaluation of ABEPP [5, 18]: 50
Degree of primary pathogen eradication, evaluation of ABEPPMM [5, 18]: 00
Degree of primary pathogen eradication, evaluation of ABEPP [5, 19]: 00
Degree of primary pathogen eradication, evaluation of ABEPPMM [5, 19]: 00
Degree of primary pathogen eradication, evaluation of ABEPP [5, 20]: 100
Degree of primary pathogen eradication, evaluation of ABEPPMM [5, 20]: 100
Degree of primary pathogen eradication, evaluation of ABEPP [5, 21]: 90
Degree of primary pathogen eradication, evaluation of ABEPPMM [5, 21]: 90
Degree of primary pathogen eradication, evaluation of ABEPP [5, 22]: 50
Degree of primary pathogen eradication, evaluation of ABEPPMM [5, 22]: 50
Degree of primary pathogen eradication, evaluation of ABEPP [5, 23]: 50
Degree of primary pathogen eradication, evaluation of ABEPPMM [5, 23]: 50
Degree of primary pathogen eradication, evaluation of ABEPP [5, 24]: 50
Degree of primary pathogen eradication, evaluation of ABEPPMM [5, 24]: 50
Degree of primary pathogen eradication, evaluation of ABEPP [5, 25]: 50
Degree of primary pathogen eradication, evaluation of ABEPPMM [5, 25]: 50
Degree of primary pathogen eradication, evaluation of ABEPP [5, 26]: 0
Degree of primary pathogen eradication, evaluation of ABEPPMM [5, 26]: 0
Degree of primary pathogen eradication, evaluation of ABEPP [5, 27]: 50
Degree of primary pathogen eradication, evaluation of ABEPPMM [5, 27]: 50
Degree of primary pathogen eradication, evaluation of ABEPP [5, 28]: 50
Degree of primary pathogen eradication, evaluation of ABEPPMM [5, 28]: 50
Degree of primary pathogen eradication, evaluation of ABEPP [5, 29]: 50
Degree of primary pathogen eradication, evaluation of ABEPPMM [5, 29]: 50
Degree of primary pathogen eradication, evaluation of ABEPP [5, 30]: 50
Degree of primary pathogen eradication, evaluation of ABEPPMM [5, 30]: 50
Degree of primary pathogen eradication, evaluation of ABEPP [5, 31]: 0
Degree of primary pathogen eradication, evaluation of ABEPPMM [5, 31]: 0
Degree of primary pathogen eradication, evaluation of ABEPP [5, 32]: 90
Degree of primary pathogen eradication, evaluation of ABEPPMM [5, 32]: 90
Degree of primary pathogen eradication, evaluation of ABEPP [5, 33]: 90
Degree of primary pathogen eradication, evaluation of ABEPPMM [5, 33]: 90
Degree of primary pathogen eradication, evaluation of ABEPP [5, 34]: 90
Degree of primary pathogen eradication, evaluation of ABEPPMM [5, 34]: 90
Degree of primary pathogen eradication, evaluation of ABEPP [5, 35]: 0
Degree of primary pathogen eradication, evaluation of ABEPPMM [5, 35]: 0
Degree of primary pathogen eradication, evaluation of ABEPP [5, 36]: 0
Degree of primary pathogen eradication, evaluation of ABEPPMM [5, 36]: 0
Degree of primary pathogen eradication, evaluation of ABEPP [5, 37]: 0
Degree of primary pathogen eradication, evaluation of ABEPPMM [5, 37]: 0
Degree of primary pathogen eradication, evaluation of ABEPP [5, 38]: 90
Degree of primary pathogen eradication, evaluation of ABEPPMM [5, 38]: 90
Degree of primary pathogen eradication, evaluation of ABEPP [5, 39]: 90
Degree of primary pathogen eradication, evaluation of ABEPPMM [5, 39]: 90
Degree of primary pathogen eradication, evaluation of ABEPP [5, 40]: 0
Degree of primary pathogen eradication, evaluation of ABEPPMM [5, 40]: 0
Degree of primary pathogen eradication, evaluation of ABEPP [5, 41]: 0
Degree of primary pathogen eradication, evaluation of ABEPPMM [5, 41]: 0
Degree of primary pathogen eradication, evaluation of ABEPP [5, 42]: 0
Degree of primary pathogen eradication, evaluation of ABEPPMM [5, 42]: 0
microbial growth, PA (PP alone) (P. aeruginosa): +
microbial growth, BP (BM alone) (B. pumilus): +
